Results from US3970648A, “2-[2-(5-Nitro-2-furyl)vinyl]-4-(anilino)quinazolines” (Diamond Shamrock Corporation, priority 1974, dated 1976).

How the values were obtained:
Format in all cases: cell-based
Streptococcus faecalis = experiment: Bactericide test, Streptococcus faecalis (agar streak plate)
In short: (§1)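 Compounds in Triton X-155/acetone emulsifier (basic formulation 320 ppm, diluted serially) were mixed 2:8 into molten nutrient-tryptic soy agar, then organisms streaked on the set plates. After 48 hr at 28°C, growth was scored visually against untreated agar as 0%, 50% (sparse, separated colonies) or 100% control (no visible colonies).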

Salmonella cholerasuis = experiment: Bactericide test, Salmonella cholerasuis (agar streak plate); settings: Salmonella
In short: as §1

Escherichia coli = experiment: Bactericide test, Escherichia coli (agar streak plate)
From the text: (§2) Test formulations were examined for bactericidal and/or bacteriostatic activity against the test organisms shown in Tables A and B. These organisms were chosen as being representative of commercially important pathogens affecting animal agriculture. The antibiotic chlortetracycline was chosen as a positive control, since it has a broad spectrum of activity against a large number of organisms, and its activity can be used for comparative purposes.
(§3) Basic test formulations of the product of Examples I, II, III, and of chlortetracycline were prepared by dissolving 16 mg (0.016 g) in 2.0 ml of stock emulsifier solution (0.25% Triton X-155 in acetone by volume) and making each solution up to 50 ml with deionized water. The concentration of the test compound in the basic formulation was 320 ppm. Lower concentrations of the test compound were obtained by diluting the basic formulation with a 4% solution of the stock emulsifier in deionized water so that each dilution in the series differed only in test compound content.
(§4) Nutrient-tryptic soy agar (NTA) consisting of 2.0% Difco Bactoagar 0.8% nutrient broth (Difco), and 0.5% tryptic soy broth (Difco) was prepared and sterilized by autoclaving. A 2 ml aliquot of each test formulation was added to 8 ml of molten NTA. This mixture was then plated in a sterile polystyrene petri dish (100 × 15 mm). After the agar was set, suspensions of each of the test organisms were simultaneously streaked onto the surface of the agar. The inoculated plates were incubated for 48 hr at 28°C. The inhibition of growth of each organism was rated by visual comparison with the organism developing on non-treated agar. Growth inhibition reported as per cent control was rated in three categories as follows: 0% control, growth equivalent to that on non-treated agar; 50% control, sparse development and separated colonies; 100% control, no visible growth or development of colonies.
(§5) Test formulations of the product of Example IV were examined for bactericidal and/or bacteriostatic activity against the test organisms shown in Table B using the Bactericide Test described in Example V. The inhibition of organism growth with each diluted test formulation was rated visually by comparison with the organism developing on a non-treated control agar plate. Growth inhibition reported as per cent control was rated in three categories as follows: 0% control, growth equivalent to that on non-treated agar; 50% control is sparse development and separated colonies; and 100% control, development of individual colonies was not apparent.

[1] = system: Erysipelothrix rhusiopathiae; experiment: Bactericide test, Erysipelothrix rhusiopathiae (agar streak plate)
In short: (§6)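 Compounds were formulated with Triton X-155/acetone emulsifier (basic formulation 320 ppm, serially diluted) and mixed 2:8 into molten nutrient-tryptic soy agar. Organisms were streaked onto the plates and incubated 48 hr at 28°C. Growth inhibition was scored visually against untreated agar as 0, 50 or 100% control.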

Streptococcus group E = experiment: Bactericide test, Streptococcus group E (agar streak plate)
In short: as §6

Salmonella gallinarum = experiment: Bactericide test, Salmonella gallinarum (agar streak plate); settings: Salmonella enterica, GALLINARUM
In short: as §1

Streptococcus agalactiae = experiment: Bactericide test, Streptococcus agalactiae (agar streak plate)
In short: as §6

Salmonella typhimurium = experiment: Bactericide test, Salmonella typhimurium (agar streak plate); settings: Salmonella enterica, TYPHIMURIUM
From the text: as §2, §3, §4

Staphylococcus aureus = experiment: Bactericide test, Staphylococcus aureus (agar streak plate); settings: Staphylococcus aureus
From the text: as §2, §3, §4, §5

[2] = system: Bordetella bronchiseptica; experiment: Bactericide test, Bordetella bronchiseptica (agar streak plate)
In short: as §6

Vibrio coli = experiment: Bactericide test, Vibrio coli (agar streak plate)
In short: as §6

[3] = 100% inhibition at lower concentrations

With `O=[N+]([O-])c1ccc(C=Cc2nc(Nc3ccc(O)cc3)c3ccccc3n2)o1` [Example I, 2-[2-(5-nitro-2-furyl)vinyl]-4-(p-hydroxyanilino)quinazoline] the “effectiveness compared with chlortetracycline (in words)” value (Streptococcus faecalis; [3]) was “considerably more effective”, the inhibition at 0.125 ppm (Streptococcus faecalis; Enterococcus faecalis, 0.125 ppm) was 100% and the inhibition at 0.25 ppm (Streptococcus faecalis; Enterococcus faecalis, 0.25 ppm) was 100%. For the same compound, the inhibition at 0.5 ppm (Streptococcus faecalis; Enterococcus faecalis, 0.5 ppm) was 100%, the inhibition at 1 ppm (Streptococcus faecalis; Enterococcus faecalis, 1 ppm, read-out: % Inhibition) was 100% and the inhibition at 2 ppm (Streptococcus faecalis; Enterococcus faecalis, 2 ppm) was 100%. For the same compound, the inhibition at 4 ppm (Streptococcus faecalis; Enterococcus faecalis, 4 ppm, read-out: % Inhibition) was 100%, the inhibition at 8 ppm (Streptococcus faecalis; Enterococcus faecalis, 8 ppm) was 100% and the inhibition at 16 ppm (Streptococcus faecalis; Enterococcus faecalis, 16 ppm, read-out: % Inhibition) was 100%. The inhibition at 32 ppm (Streptococcus faecalis; Enterococcus faecalis, 32 ppm) was 100%, the inhibition at 64 ppm (Streptococcus faecalis; Enterococcus faecalis, 64 ppm, read-out: % Inhibition) was 100% and the inhibition at 0.125 ppm (Salmonella cholerasuis; 0.125 ppm) was 0%. It also gave an inhibition at 0.25 ppm (Salmonella cholerasuis; 0.25 ppm) of 0%, an inhibition at 0.5 ppm (Salmonella cholerasuis; 0.5 ppm) of 0% and an inhibition at 1 ppm (Salmonella cholerasuis; 1 ppm, read-out: % Inhibition) of 0%. The inhibition at 2 ppm (Salmonella cholerasuis; 2 ppm) was 0%, the inhibition at 4 ppm (Salmonella cholerasuis; 4 ppm, read-out: % Inhibition) was 0% and the inhibition at 8 ppm (Salmonella cholerasuis; 8 ppm) was 0%. For the same compound, the inhibition at 16 ppm (Salmonella cholerasuis; 16 ppm, read-out: % Inhibition) was 0%, the inhibition at 32 ppm (Salmonella cholerasuis; 32 ppm) was 0% and the inhibition at 64 ppm (Salmonella cholerasuis; 64 ppm, read-out: % Inhibition) was 0%. The inhibition at 0.125 ppm (Escherichia coli; 0.125 ppm) was 0%, the inhibition at 0.25 ppm (Escherichia coli; 0.25 ppm) was 0% and the inhibition at 0.5 ppm (Escherichia coli; 0.5 ppm) was 0%. For the same compound, the inhibition at 1 ppm (Escherichia coli; 1 ppm, read-out: % Inhibition) was 0%, the inhibition at 2 ppm (Escherichia coli; 2 ppm) was 0% and the inhibition at 4 ppm (Escherichia coli; 4 ppm, read-out: % Inhibition) was 0%. The inhibition at 8 ppm (Escherichia coli; 8 ppm) was 0%, the inhibition at 16 ppm (Escherichia coli; 16 ppm, read-out: % Inhibition) was 0% and the inhibition at 32 ppm (Escherichia coli; 32 ppm) was 0%. The inhibition at 64 ppm (Escherichia coli; 64 ppm, read-out: % Inhibition) was 0%, the “effectiveness compared with chlortetracycline (in words)” value [1, 3] was “considerably more effective” and the inhibition at 0.125 ppm ([1]; Erysipelothrix rhusiopathiae, 0.125 ppm) was 100%. It also gave an inhibition at 0.25 ppm ([1]; Erysipelothrix rhusiopathiae, 0.25 ppm) of 100%, an inhibition at 0.5 ppm ([1]; Erysipelothrix rhusiopathiae, 0.5 ppm) of 100% and an inhibition at 1 ppm ([1]; Erysipelothrix rhusiopathiae, 1 ppm) of 100%. The inhibition at 2 ppm ([1]; Erysipelothrix rhusiopathiae, 2 ppm) was 100%, the inhibition at 4 ppm ([1]; Erysipelothrix rhusiopathiae, 4 ppm) was 100% and the inhibition at 8 ppm ([1]; Erysipelothrix rhusiopathiae, 8 ppm) was 100%. For the same compound, the inhibition at 16 ppm ([1]; Erysipelothrix rhusiopathiae, 16 ppm) was 100%, the inhibition at 32 ppm ([1]; Erysipelothrix rhusiopathiae, 32 ppm) was 100% and the inhibition at 64 ppm ([1]; Erysipelothrix rhusiopathiae, 64 ppm) was 100%. It also gave an inhibition at 0.125 ppm (Streptococcus group E; 0.125 ppm) of 100%, an inhibition at 0.25 ppm (Streptococcus group E; 0.25 ppm) of 100% and an inhibition at 0.5 ppm (Streptococcus group E; 0.5 ppm) of 100%. For the same compound, the inhibition at 1 ppm (Streptococcus group E; 1 ppm, read-out: % Inhibition) was 100%, the inhibition at 2 ppm (Streptococcus group E; 2 ppm) was 100% and the inhibition at 4 ppm (Streptococcus group E; 4 ppm, read-out: % Inhibition) was 100%. The inhibition at 8 ppm (Streptococcus group E; 8 ppm) was 100%, the inhibition at 16 ppm (Streptococcus group E; 16 ppm, read-out: % Inhibition) was 100% and the inhibition at 32 ppm (Streptococcus group E; 32 ppm) was 100%. For the same compound, the inhibition at 64 ppm (Streptococcus group E; 64 ppm, read-out: % Inhibition) was 100%, the “effectiveness compared with chlortetracycline (in words)” value (Streptococcus group E; [3]) was “considerably more effective” and the inhibition at 0.125 ppm (Salmonella gallinarum; 0.125 ppm) was 0%. It also gave an inhibition at 0.25 ppm (Salmonella gallinarum; 0.25 ppm) of 0%, an inhibition at 0.5 ppm (Salmonella gallinarum; 0.5 ppm) of 0% and an inhibition at 1 ppm (Salmonella gallinarum; 1 ppm) of 0%. For the same compound, the inhibition at 2 ppm (Salmonella gallinarum; 2 ppm) was 0%, the inhibition at 4 ppm (Salmonella gallinarum; 4 ppm) was 0% and the inhibition at 8 ppm (Salmonella gallinarum; 8 ppm) was 0%. It also gave an inhibition at 16 ppm (Salmonella gallinarum; 16 ppm) of 0%, an inhibition at 32 ppm (Salmonella gallinarum; 32 ppm) of 0% and an inhibition at 64 ppm (Salmonella gallinarum; 64 ppm) of 0%. For the same compound, the “effectiveness compared with chlortetracycline (in words)” value (Streptococcus agalactiae; [3]) was “considerably more effective”, the inhibition at 0.125 ppm (Streptococcus agalactiae; Streptococcus agalactiae, 0.125 ppm) was 100% and the inhibition at 0.25 ppm (Streptococcus agalactiae; Streptococcus agalactiae, 0.25 ppm) was 100%. For the same compound, the inhibition at 0.5 ppm (Streptococcus agalactiae; Streptococcus agalactiae, 0.5 ppm) was 100%, the inhibition at 1 ppm (Streptococcus agalactiae; Streptococcus agalactiae, 1 ppm, read-out: % Inhibition) was 100% and the inhibition at 2 ppm (Streptococcus agalactiae; Streptococcus agalactiae, 2 ppm) was 100%. It also gave an inhibition at 4 ppm (Streptococcus agalactiae; Streptococcus agalactiae, 4 ppm, read-out: % Inhibition) of 100%, an inhibition at 8 ppm (Streptococcus agalactiae; Streptococcus agalactiae, 8 ppm) of 100% and an inhibition at 16 ppm (Streptococcus agalactiae; Streptococcus agalactiae, 16 ppm, read-out: % Inhibition) of 100%. It also gave an inhibition at 32 ppm (Streptococcus agalactiae; Streptococcus agalactiae, 32 ppm) of 100%, an inhibition at 64 ppm (Streptococcus agalactiae; Streptococcus agalactiae, 64 ppm, read-out: % Inhibition) of 100% and an inhibition at 0.125 ppm (Salmonella typhimurium; 0.125 ppm) of 0%. For the same compound, the inhibition at 0.25 ppm (Salmonella typhimurium; 0.25 ppm) was 0%, the inhibition at 0.5 ppm (Salmonella typhimurium; 0.5 ppm) was 0% and the inhibition at 1 ppm (Salmonella typhimurium; 1 ppm, read-out: % Inhibition) was 0%. For the same compound, the inhibition at 2 ppm (Salmonella typhimurium; 2 ppm) was 0%, the inhibition at 4 ppm (Salmonella typhimurium; 4 ppm, read-out: % Inhibition) was 0% and the inhibition at 8 ppm (Salmonella typhimurium; 8 ppm) was 0%. The inhibition at 16 ppm (Salmonella typhimurium; 16 ppm, read-out: % Inhibition) was 0%, the inhibition at 32 ppm (Salmonella typhimurium; 32 ppm) was 0% and the inhibition at 64 ppm (Salmonella typhimurium; 64 ppm, read-out: % Inhibition) was 0%. For the same compound, the inhibition at 0.125 ppm (Staphylococcus aureus; 0.125 ppm) was 0%, the inhibition at 0.25 ppm (Staphylococcus aureus; 0.25 ppm) was 0% and the inhibition at 0.5 ppm (Staphylococcus aureus; 0.5 ppm) was 0%. The inhibition at 1 ppm (Staphylococcus aureus; 1 ppm, read-out: % Inhibition) was 0%, the inhibition at 2 ppm (Staphylococcus aureus; 2 ppm) was 0% and the inhibition at 4 ppm (Staphylococcus aureus; 4 ppm, read-out: % Inhibition) was 0%. For the same compound, the inhibition at 8 ppm (Staphylococcus aureus; 8 ppm) was 0%, the inhibition at 16 ppm (Staphylococcus aureus; 16 ppm, read-out: % Inhibition) was 0% and the inhibition at 32 ppm (Staphylococcus aureus; 32 ppm) was 0%. For the same compound, the inhibition at 64 ppm (Staphylococcus aureus; 64 ppm, read-out: % Inhibition) was 0%, the “effectiveness compared with chlortetracycline (in words)” value [2, 3] was “considerably more effective” and the inhibition at 0.125 ppm ([2]; Bordetella bronchiseptica, 0.125 ppm) was 100%. The inhibition at 0.25 ppm ([2]; Bordetella bronchiseptica, 0.25 ppm) was 100%, the inhibition at 0.5 ppm ([2]; Bordetella bronchiseptica, 0.5 ppm) was 100% and the inhibition at 1 ppm ([2]; Bordetella bronchiseptica, 1 ppm, read-out: % Inhibition) was 100%. For the same compound, the inhibition at 2 ppm ([2]; Bordetella bronchiseptica, 2 ppm) was 100%, the inhibition at 4 ppm ([2]; Bordetella bronchiseptica, 4 ppm, read-out: % Inhibition) was 100% and the inhibition at 8 ppm ([2]; Bordetella bronchiseptica, 8 ppm) was 100%. It also gave an inhibition at 16 ppm ([2]; Bordetella bronchiseptica, 16 ppm, read-out: % Inhibition) of 100%, an inhibition at 32 ppm ([2]; Bordetella bronchiseptica, 32 ppm) of 100% and an inhibition at 64 ppm ([2]; Bordetella bronchiseptica, 64 ppm, read-out: % Inhibition) of 100%. For the same compound, the “effectiveness compared with chlortetracycline (in words)” value (Vibrio coli; [3]) was “considerably more effective”, the inhibition at 0.125 ppm (Vibrio coli; Campylobacter coli, 0.125 ppm) was 100% and the inhibition at 0.25 ppm (Vibrio coli; Campylobacter coli, 0.25 ppm) was 100%. The inhibition at 0.5 ppm (Vibrio coli; Campylobacter coli, 0.5 ppm) was 100%, the inhibition at 1 ppm (Vibrio coli; Campylobacter coli, 1 ppm) was 100% and the inhibition at 2 ppm (Vibrio coli; Campylobacter coli, 2 ppm) was 100%. For the same compound, the inhibition at 4 ppm (Vibrio coli; Campylobacter coli, 4 ppm) was 100%, the inhibition at 8 ppm (Vibrio coli; Campylobacter coli, 8 ppm) was 100% and the inhibition at 16 ppm (Vibrio coli; Campylobacter coli, 16 ppm) was 100%. It also gave an inhibition at 32 ppm (Vibrio coli; Campylobacter coli, 32 ppm) of 100% and an inhibition at 64 ppm (Vibrio coli; Campylobacter coli, 64 ppm) of 100%.
